# How the values were obtained:
# [1] = target: T1, full-length human PKCι (Homo sapiens, UniProt P41743); assay: PKCι IC50 IMAP assay, full-length PKCι at 150 μM ATP; format: biochemical; conditions: read-out: IC50 in IMAP assay against full length PKCi at 150 μM ATP
# T1 construct: Recombinant, full-length human PKCι expressed in Sf21 insect cells is also commercially available; purchased; host or cells: Sf21 insect cells
# T1 sequence (P41743 1-596): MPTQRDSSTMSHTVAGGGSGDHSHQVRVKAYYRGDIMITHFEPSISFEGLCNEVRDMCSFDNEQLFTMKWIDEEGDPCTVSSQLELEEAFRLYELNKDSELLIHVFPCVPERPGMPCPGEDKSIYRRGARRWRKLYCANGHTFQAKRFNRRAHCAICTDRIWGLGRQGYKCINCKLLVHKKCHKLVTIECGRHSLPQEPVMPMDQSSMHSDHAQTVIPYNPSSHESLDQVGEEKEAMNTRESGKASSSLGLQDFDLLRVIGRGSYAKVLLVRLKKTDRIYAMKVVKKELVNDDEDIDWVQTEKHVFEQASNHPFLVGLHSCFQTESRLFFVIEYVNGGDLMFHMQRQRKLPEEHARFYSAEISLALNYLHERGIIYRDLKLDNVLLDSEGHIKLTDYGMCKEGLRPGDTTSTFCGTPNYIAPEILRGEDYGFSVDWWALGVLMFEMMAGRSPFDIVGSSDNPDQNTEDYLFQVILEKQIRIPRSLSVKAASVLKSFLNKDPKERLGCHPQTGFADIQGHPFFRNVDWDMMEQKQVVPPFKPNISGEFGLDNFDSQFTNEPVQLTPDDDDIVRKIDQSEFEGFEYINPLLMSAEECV
# Outline: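 IMAP fluorescence polarisation (ex 485/em 530 nm) read-out; % inhibition set from no-compound (0%) and no-enzyme (100%) controls, IC50 from dose-response curve fit. Sf21-expressed full-length enzyme ~15 pM, 100 nM FAM peptide, ATP 150 μM (5× KM^APP), 60 min at RT.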
# [2] = system: NSCLC cells; conditions: pharmacological inhibition of PKCι; literature (Regala et al.); cited from earlier work
# [3] = system: follicular lymphoma; conditions: by targeting a PKCζ-MAPK-mTOR pathway; literature (Leseux et al.); cited from earlier work
Compound,IC50 [1],melting point,growth of NSCLC cells in soft agar [2],follicular lymphoma proliferation [3]
"Cc1cc(N2CCOCC2)ccc1Nc1cc(-c2nc(N3CCNCC3)c3c(C4CC4)cncc3n2)ccn1 [Example 474, [4-(5-Cyclopropyl-4-piperazin-1-yl-pyrido[3,4-d]pyrimidin-2-yl)-pyridin-2-yl]-(2-methyl-4-morpholin-4-yl-phenyl)-amine]",< 100 nM,214 to 220 °C,,
"c1cc(-c2nc(N3CCNCC3)c3c(C4CC4)cncc3n2)cc(Nc2ccc(N3CCOCC3)nc2)n1 [Example 475, [4-(5-Cyclopropyl-4-piperazin-1-yl-pyrido[3,4-d]pyrimidin-2-yl)-pyridin-2-yl]-(6-morpholin-4-yl-pyridin-3-yl)-amine]",< 100 nM,217 to 219 °C,,
"N#Cc1ccc(CC(=O)Nc2cc(-c3nc(N4CCNCC4)c4c(C5CC5)cncc4n3)ccn2)cc1 [Example 473, 2-(4-Cyano-phenyl)-N-[4-(5-cyclopropyl-4-piperazin-1-yl-pyrido[3,4-d]pyrimidin-2-yl)-pyridin-2-yl]-acetamide]",< 100 nM,200 to 203 °C,,
"COc1cncc2nc(-c3ccnc(Nc4ccccc4)c3)nc(N3CCC(F)CC3)c12 [Example 462, {4-[4-(4-Fluoro-piperidin-1-yl)-5-methoxy-pyrido[3,4-d]pyrimidin-2-yl]-pyridin-2-yl}-phenyl-amine]",10000 to 40000 nM,202 to 205 °C,,
"c1cncc(Nc2cc(-c3nc(N4CCNCC4)c4c(C5CC5)cncc4n3)ccn2)c1 [Example 476, [4-(5-Cyclopropyl-4-piperazin-1-yl-pyrido[3,4-d]pyrimidin-2-yl)-pyridin-2-yl]-pyridin-3-yl-amine]",< 100 nM,226 to 228 °C,,
O=C(O)CC([S-])C(=O)O.[Au+] (stereo not drawn) [aurothiomalate],,,blocks the growth,
"COc1cncc2nc(-c3ccnc(Nc4ccccc4)c3)nc(N3CC[C@@H](CO)C3)c12 [Example 465, {(R)-1-[5-Methoxy-2-(2-phenylamino-pyridin-4-yl)-pyrido[3,4-d]pyrimidin-4-yl]-pyrrolidin-3-yl}-methanol]",1000 to 10000 nM,208 to 209 °C,,
"COc1cccc(Nc2cc(-c3nc(N4CCNCC4)c4c(OC)cncc4n3)ccn2)n1 [Example 448, [4-(5-Methoxy-4-piperazin-1-yl-pyrido[3,4-d]pyrimidin-2-yl)-pyridin-2-yl]-(6-methoxy-pyridin-2-yl)-amine]",< 100 nM,189 to 191 °C,,
"COc1cncc2nc(-c3ccnc(Nc4ccccc4)c3)nc(N3CC[C@H](CO)C3)c12 [Example 466, {(S)-1-[5-Methoxy-2-(2-phenylamino-pyridin-4-yl)-pyrido[3,4-d]pyrimidin-4-yl]-pyrrolidin-3-yl}-methanol]",1000 to 10000 nM,210 to 211 °C,,
"COc1cncc2nc(-c3ccnc(Nc4ccc(Cl)nc4)c3)nc(N3CCNCC3)c12 [Example 405, (6-Chloro-pyridin-3-yl)-[4-(5-methoxy-4-piperazin-1-yl-pyrido[3,4-d]pyrimidin-2-yl)-pyridin-2-yl]-amine]",< 100 nM,206 to 208 °C,,
"Rituximab: ""the anti-CD20 therapeutic antibody rituximab""",,,,inhibits follicular lymphoma proliferation
"COc1cncc2nc(-c3ccnc(Nc4ccccc4)c3)nc(N3CCC(C#N)CC3)c12 [Example 461, 1-[5-Methoxy-2-(2-phenylamino-pyridin-4-yl)-pyrido[3,4-d]pyrimidin-4-yl]-piperidine-4-carbonitrile]",1000 to 10000 nM,242 to 244 °C,,
"c1ccc(Nc2cc(-c3nc(N4CCNCC4)c4c(C5CC5)cncc4n3)ccn2)cc1 [Example 481, [4-(5-Cyclopropyl-4-piperazin-1-yl-pyrido[3,4-d]pyrimidin-2-yl)-pyridin-2-yl]-phenyl-amine]",,221 to 226 °C,,
"COc1cncc2nc(-c3ccnc(Nc4ccccc4)c3)nc(N3CC[C@H](O)[C@H](O)C3)c12 (racemic) [Example 436, (±)-cis-1-[5-Methoxy-2-(2-phenylamino-pyridin-4-yl)-pyrido[3,4-d]pyrimidin-4-yl]-piperidine-3,4-diol]",100 to 1000 nM,241 to 243 °C,,
"COc1cncc2nc(-c3ccnc(Nc4ncccn4)c3)nc(N3CCNCC3)c12 [Example 423, [4-(5-Methoxy-4-piperazin-1-yl-pyrido[3,4-d]pyrimidin-2-yl)-pyridin-2-yl]-pyrimidin-2-yl-amine]",100 to 1000 nM,200 to 203 °C,,
"COc1cncc2nc(-c3ccnc(Nc4ccccc4)c3)nc(N3CCCCC3)c12 [Example 459, [4-(5-Methoxy-4-piperidin-1-yl-pyrido[3,4-d]pyrimidin-2-yl)-pyridin-2-yl]-phenyl-amine]",10000 to 40000 nM,221 to 223 °C,,
"COc1cccc(Nc2cc(-c3nc(N4CCNCC4)c4c(C5CC5)cncc4n3)ccn2)n1 [Example 588, [4-(5-Cyclopropyl-4-piperazin-1-yl-pyrido[3,4-d]pyrimidin-2-yl)-pyridin-2-yl]-(6-methoxy-pyridin-2-yl)-amine]",< 100 nM,,,
"FC1(F)CCC(Nc2cc(-c3nc(N4CCNCC4)c4c(C5CC5)cncc4n3)ccn2)C1 (stereo not drawn) [Example 621, [4-(5-Cyclopropyl-4-piperazin-1-yl-pyrido[3,4-d]pyrimidin-2-yl)-pyridin-2-yl]-(3,3-difluoro-cyclopentyl)-amine]",< 100 nM,,,
"Fc1cccc(F)c1Nc1cc(-c2nc(C3=CCNCC3)c3c(C4CC4)cncc3n2)ccn1 [Example 789, {4-[5-Cyclopropyl-4-(1,2,3,6-tetrahydro-pyridin-4-yl)-pyrido[3,4-d]pyrimidin-2-yl]-pyridin-2-yl}-(2,6-difluoro-phenyl)-amine]",100 to 1000 nM,,,
"Fc1cccc2nc(Nc3cc(-c4nc(N5CCNCC5)c5c(C6CC6)cncc5n4)ccn3)nn12 [Example 2041, [4-(5-Cyclopropyl-4-piperazin-1-yl-pyrido[3,4-d]pyrimidin-2-yl)-pyridin-2-yl]-(5-fluoro-[1,2,4]triazolo[1,5-a]pyridin-2-yl)-amine]",< 100 nM,,,
"Fc1cccn2nc(Nc3cc(-c4nc(N5CCNCC5)c5c(C6CC6)cncc5n4)ccn3)nc12 [Example 2032, [4-(5-Cyclopropyl-4-piperazin-1-yl-pyrido[3,4-d]pyrimidin-2-yl)-pyridin-2-yl]-(8-fluoro-[1,2,4]triazolo[1,5-a]pyridin-2-yl)-amine]",< 100 nM,,,
"OCCN1CCN(c2nc(-c3ccncc3)nc3cnccc23)CC1 [Example 34, 2-{4-[2-(pyridin-4-yl)pyrido[3,4-d]-pyrimidin-4-yl]-piperazin-1-yl}-ethan-1-ol]",10000 to 40000 nM,,,
"c1ccc(COCc2cncc3nc(-c4ccncc4)nc(N4CCNCC4)c23)cc1 [Example 140, 1-{5-[(benzyloxy)methyl]-2-(pyridin-4-yl)pyrido[3,4-d]pyrimidin-4-yl}piperazine]",100 to 1000 nM,,,

# From patent US9914730B2, “Azaquinazoline inhibitors of Atypical protein Kinase C” (Ignyta, Inc., priority 2012, dated 2018)
